Assay results reported in ChEMBL document CHEMBL3596161, “Progress Toward the Development of Noscapine and Derivatives as Anticancer Agents” (J Med Chem, 2015).

What was measured:
[1] = tested on: HeLa; assay: Cytotoxicity against human HeLa cells; format: functional, cell-based
[2] = tested on: A549; assay: Cytotoxicity against human A549 cells; format: functional, cell-based
[3] = tested on: MCF7; assay: Cytotoxicity against human MCF7 cells; format: functional, cell-based
[4] = tested on: CCRF-CEM; assay: Cytotoxicity against human CEM cells; format: functional, cell-based
[5] = Cytotoxicity against human NCI/ADR cells; details: NCI/ADR-RES
[6] = Cytotoxicity against human NCI-ADR-RES cells expressing ABCB1
[7] = Antitumor activity against human CCRF-CEM/VLB100 cells xenografted in mouse assessed as reduction of tumor at 300 mg/kg/day, po administered for 32 days; format: functional; details: 768 h, read-out: GI
[8] = tested on: CCRF-CEM; assay: Antitumor activity against human CEM cells xenografted in mouse assessed as reduction of tumor at 300 mg/kg/day, po administered for 26 days; format: functional; details: 624 h, read-out: GI
[9] = biological target: Tubulin; assay: Binding affinity to tubulin (unknown origin); format: protein-complex assay, Homo sapiens
[10] = Induction of apoptosis in human CCRF-CEM/VLB100 cells assessed as reduction of mitochondrial potential after 72 hrs; format: functional; set-up: scale not given: the % may be the effect or the level left
[11] = tested on: CCRF-CEM; assay: Cell cycle arrest in human CEM cells assessed as accumulation at G2/M phase; format: functional
[12] = tested on: CCRF-CEM; assay: Antitumor activity against human CEM cells xenografted in mouse assessed as reduction of tumor at 10 mg/kg/day, iv administered for 26 days; format: functional; details: 624 h, read-out: GI
[13] = Cell cycle arrest in human CCRF-CEM/VLB100 cells assessed as accumulation at sub-G1 phase by measuring 2N DNA content after 72 hrs; format: functional, cell-based
[14] = Cytotoxicity against human Non-small cell lung cancer cell; format: functional, cell-based; details: Cancer cell lines
[15] = tested on: HeLa; assay: Antimitotic activity against human HeLa cells; format: functional, cell-based
[16] = biological target: T1, Tubulin (Homo sapiens) (UniProt P68371+Q9H4B7+P0DPH7+P68366+Q13509+Q71U36+P04350+Q3ZCM7+P07437+P68363+Q9BQE3+Q6PEY2+Q13885+Q9BVA1+Q9BUF5); assay: Inhibition of colchicine binding to tubulin (unknown origin) at 50 uM; format: protein-complex assay
[17] = Induction of apoptosis in human CCRF-CEM/VLB100 cells assessed as reduction of mitochondrial potential after 24 hrs; format: functional; set-up: scale not given: the % may be the effect or the level left
[18] = tested on: HeLa; assay: Cell cycle arrest in human HeLa cells assessed as accumulation at G2/M phase by measuring 4N DNA content at 6.4 uM by flow cytometry; format: functional
[19] = Cell cycle arrest in human CCRF-CEM/VLB100 cells assessed as accumulation at G2/M phase; format: functional, cell-based
[20] = biological target: T1, Tubulin (Homo sapiens); assay: Inhibition of colchicine binding to tubulin (unknown origin) at 100 uM; format: protein-complex assay
[21] = biological target: T1, Tubulin (Homo sapiens); assay: Inhibition of colchicine binding to tubulin (unknown origin) at 25 uM; format: protein-complex assay
[22] = tested on: CCRF-CEM; assay: Cell cycle arrest in human CEM cells assessed as accumulation at sub-G1 phase by measuring 2N DNA content after 72 hrs; format: functional
[23] = biological target: T1, Tubulin (Homo sapiens); assay: Inhibition of MAPs-rich tubulin (unknown origin) polymerization at 50 uM; format: protein-complex assay
[24] = biological target: Tubulin; assay: Binding affinity to tubulin (unknown origin) by fluorescence assay; format: protein-complex assay, Homo sapiens

Work on `COc1ccc2c(c1OC)C(=O)O[C@@H]2[C@H]1c2c(cc3c(c2OC)OCO3)CCN1Cc1cccc(Br)c1` yielded an IC50 [1] of 17.3 µM, an IC50 [2] of 32.1 µM and an IC50 [3] of 27.8 µM. It also gave an IC50 [4] of 7.5 µM.

With `COc1cc2c(c(OC)c1OC)-c1ccc(OC)c(=O)cc1[C@@H](NC(C)=O)CC2` [COLCHICINE] the IC50 [5] was 0.00036 µM and the IC50 [6] was 0.096 µM.

With `COc1ccc2c(c1OC)C(=O)O[C@@H]2[C@H]1c2c(c(Br)c3c(c2OC)OCO3)CCN1C` the inhibition in vivo at 300 mg/kg/day [7] was 81%, the inhibition in vivo at 300 mg/kg/day [8] was 80% and the Kd [9] was 54 µM. The Activity [10] was 99%, the Activity [11] was 45% and the inhibition in vivo at 10 mg/kg/day [12] was 80%. For the same molecule, the Activity [13] was 75%, the IC50 [14] was 4 µM and the EC50 [15] was 7.7 µM. It also gave an inhibition [16] of 40%, an Activity [17] of 49% and an Activity [18] of 51.8%. For the same molecule, the Activity [19] was 47%, the inhibition [20] was 66% and the inhibition [21] was 23%. For the same molecule, the Activity [22] was 57%.

`COc1ccc2c(c1OC)C(=O)O[C@@H]2[C@@H]1NCCc2cc3c(c(OC)c21)OCO3` gave an IC50 [1] of 20.9 µM, an IC50 [2] of 41.6 µM and an IC50 [3] of 33.6 µM. The IC50 [4] was 8.9 µM.

Work on `COc1ccc2c(c1OC)C(=O)O[C@@H]2[C@H]1c2c(cc3c(c2OC)OCO3)CCN1Cc1ccccc1` yielded an IC50 [1] of 19.4 µM, an IC50 [2] of 37.7 µM and an IC50 [3] of 31.2 µM. It also gave an IC50 [4] of 8.3 µM.

In the case of `CCOC(=O)CN1CCc2cc3c(c(OC)c2[C@@H]1[C@H]1OC(=O)c2c1ccc(OC)c2OC)OCO3`, the IC50 [1] is reported as 32.4 µM, the IC50 [2] is reported as 72.3 µM and the IC50 [3] is reported as 52.6 µM. For the same molecule, the IC50 [4] was 13.6 µM.

`COc1ccc2c(c1OC)C(=O)O[C@@H]2[C@H]1c2c(cc3c(c2OC)OCO3)CCN1CC(C)=O` gave an IC50 [1] of 15.8 µM, an IC50 [2] of 28 µM and an IC50 [3] of 25.3 µM. It also gave an IC50 [4] of 6.9 µM.

With `COc1ccc2c(c1OCCCCS(=O)(=O)O)C(=O)O[C@@H]2[C@H]1c2c(c(Br)c3c(c2OC)OCO3)CCN1C` the inhibition [23] was 68%.

`COc1ccc2c(c1OC)C(=O)O[C@@H]2[C@H]1c2c(c(N)c3c(c2OC)OCO3)CCN1C` showed a Kd [24] of 14 µM.

`COc1ccc2c(c1OC)C(=O)O[C@@H]2[C@H]1c2c(cc3c(c2OC)OCO3)CCN1Cc1cccc(Cl)c1` showed an IC50 [1] of 28.3 µM, an IC50 [2] of 61.3 µM and an IC50 [3] of 45.8 µM. It also gave an IC50 [4] of 11.9 µM.

With `COC(=O)CN1CCc2cc3c(c(OC)c2[C@@H]1[C@H]1OC(=O)c2c1ccc(OC)c2OC)OCO3` the IC50 [1] was 22.3 µM, the IC50 [2] was 45.4 µM and the IC50 [3] was 36 µM. The IC50 [4] was 9.5 µM.
